From patent US11395835B2, “Use of common gamma chain cytokines for the visualization, isolation and genetic modification of memory T lymphocytes” (OSPEDALE SAN RAFFAELE S.R.L., priority 2005, dated 2022)

Experiments:
[1] = tested on: CD4+ T cells from tumor-draining LN of TS/A-LACK tumor-bearing 16.2β mice; assay: IL-7-driven accumulation of fast-proliferating memory CD4+ T cells with inhibitors; format: cell-based; conditions: IL-7-driven cultures, 7 days
Description: FIG. 11. Intermediate memory CD4^+ T cells accumulate in the presence of IL-7 in a cell-density dependent, CsA-sensitive manner. Cells derived from the axillary, brachial and inguinal LN of naïve (A, B) and TS/A-LACK tumor-bearing (C-E) 16.20 mice were labeled with CFSE and respectively cultured for 7 days in plain medium, in the presence of LACK peptide (Ag) (A, B) or IL-7 (C-E) in the absence (nil) or in the presence of the indicated inhibitors. At the end of the culture the cells were stimulated for 5 h with L/28 aAPCs, and intracellular cytokine release was determined. A-D) Histograms show the CFSE dilution profile of equivalent numbers of (7×10^4) CD4^+ T cells. In A and C the thin lines reflect the CFSE profile of CD4+ T cells cultured in plain medium, while the thick lines depict the CFSE profile of CD4+ T cells cultured in Ag or IL-7, respectively. […]
(§1) 5 μm polystyrene sulfate latex beads (Interfacial Dynamics) were coated with I-A^d/LACK dimers (20 μg/ml) and anti-CD28 mAb (37.51; 2 μg/ml) (LACK aAPC) or with anti-CD28 mAb only (control aAPC). Coating of the proteins was monitored by flow cytometry analysis. […] The total number of Ag-specific IL-2^+/IFN-γ^+ T cells was determined by multiplying the percentage by the total number of Trypan Blue-negative LN cells.

[2] = tested on: naïve CD4+ T cells of 16.2β mice stimulated with LACK-pulsed APC; assay: Ag-driven proliferation of naive T cells with inhibitors (CFSE); format: cell-based; conditions: 7 days
Description: FIG. 11. Intermediate memory CD4^+ T cells accumulate in the presence of IL-7 in a cell-density dependent, CsA-sensitive manner. Cells derived from the axillary, brachial and inguinal LN of naïve (A, B) and TS/A-LACK tumor-bearing (C-E) 16.20 mice were labeled with CFSE and respectively cultured for 7 days in plain medium, in the presence of LACK peptide (Ag) (A, B) or IL-7 (C-E) in the absence (nil) or in the presence of the indicated inhibitors. At the end of the culture the cells were stimulated for 5 h with L/28 aAPCs, and intracellular cytokine release was determined. A-D) Histograms show the CFSE dilution profile of equivalent numbers of (7×10^4) CD4^+ T cells. In A and C the thin lines reflect the CFSE profile of CD4+ T cells cultured in plain medium, while the thick lines depict the CFSE profile of CD4+ T cells cultured in Ag or IL-7, respectively. In B and D, thin line: cells cultured in the absence of the inhibitor, thick line: cells cultured in the presence of the inhibitor. E) Dot plots are shown after gating on viable CD4^+ T cells. Percentages indicate the frequency of LACK-specific cytokine secreting cells.
(§2) Twenty days after tumor cell injection mice were sacrificed and the axillary, brachial and inguinal peripheral lymph nodes (LN) draining and distal (non draining LN) to the site of tumor growth were recovered. […]

[3] = tested on: AH-1-specific CD8+ T cells; assay: Cytokine-driven culture of tumor-draining LN, AH-1-specific intracellular cytokine release; format: cell-based, BALB/c mice; conditions: 7 days culture without Ag re-stimulation; undetectable ex vivo
Description: FIG. 10. IL-7 favors the accumulation of tumor-specific memory CD8^+ T cells otherwise undetectable ex vivo. A) BALB/c mice (5 mice per group) were challenged with 3×10^5 TS/A-LACK tumor cells and sacrificed 21 days later. Cells from pools of tumor draining LN (A-C) were analyzed ex vivo (A) and after 7 days in culture in the absence or in the presence of IL-7, IL-2, IL-15, IL-6 (B-C). A) Representative dot plots depict IL-2 and IFN-γ production by KJ1.26^− CD8^+ T cells. The frequency (A, B) and total number (C) of AH-1-specific cytokine-producing KJ1.26^− CD8^+ T cells is reported.
as §2, with “recovered. In the experiments of dendritic cell (DC) vaccination, mice were sacrificed fourteen days after DC administration and the axillary, brachial and inguinal LN were surgically excised.” for “recovered.”
as §1

[4] = tested on: CD4+ T cells from TS/A-LACK tumor draining LN; assay: TO-PRO-3 viability of CFSE-labeled LN cultures maintained in cytokines; format: cell-based, mice; conditions: total CD4+ cells, after a week in culture with the cytokine alone
Description: (§3) FIG. 5. IL-7 and IL-2 favor T cell survival and the optimal expression of Bcl-2. Cells from TS/A-LACK tumor draining LN were labeled with the CFSE vital dye and cultured in the absence (−) or in the presence of IL-7, IL-2, IL-15 and IL-6 alone. After 7 days, cells were recovered and stained with anti-CD4 mAb and TO-PRO-3 (A) and with anti-Bcl-2 mAb (B, C). A) representative dot plots of total CD4^+ cells are shown. The frequencies of total CD4^+ TOPRO-3^+ (brackets) and of CFSE dim, TO-PRO-3″ cells (bold) are reported. B-C) events are shown after physical gating on viable CD4^+ T lymphocytes. C) thin line: isotype control; thin lines-shaded profile: anti-Bcl-2 Ab, medium cultured cells; thick lines: anti-Bcl-2 Ab, cytokine-cultured cells. The experiment is representative of 2 independent determinations.
as §2, with “recovered. In the experiments of dendritic cell (DC) vaccination, mice were sacrificed fourteen days after DC administration and the axillary, brachial and inguinal LN were surgically excised.” for “recovered.”

[5] = tested on: CD4+ T cells from TS/A-LACK tumor draining LN; assay: Bcl-2 expression in CFSE-labeled LN cultures maintained in cytokines; format: cell-based, mice; conditions: 7 days culture with the cytokine alone
Description: as §3
FIG. 6. Phenotype and subset representation of lymphocytes maintained in IL-7 and IL-2. CFSE-labeled TS/A-LACK-tumor-draining LN cultures were maintained for a week in the presence of IL-7 or IL-2. Thereafter the cells were stained with anti CD4, CD44, CD25, CD127, and CD132 mAbs. A) representative dot plots report the expression levels of CD44, CD62L, CD25, CD127, and CD132 of viable CD4+. B) overlay of CD4^+, CFSE dim cells derived from IL-7 (thin lines) and IL-2 (thick lines) cultures in the absence of Ag-stimulation are shown. […]

[6] = tested on: LACK-specific CD4+ T cells from LN of TS/A-LACK tumor-bearing BALB/c mice; assay: Ag-free short-term culture: I-Ad/LACK multimer staining, LACK-specific intracellular cytokine release, CFSE dilution; format: cell-based; conditions: CFSE-labeled LN cells, 7 days, versus nil cultures
Description: Twenty days after tumor cell injection mice were sacrificed and the axillary, brachial and inguinal peripheral lymph nodes (LN) draining and distal (non draining LN) to the site of tumor growth were recovered. In the experiments of dendritic cell (DC) vaccination, mice were sacrificed fourteen days after DC administration and the axillary, brachial and inguinal LN were surgically excised. LN cells were cultured in 24 well plates at the density of 5×10^6 in complete medium in the absence or in the presence of recombinant murine IL-7 (200 ng/ml), IL-2 (20 ng/ml), IL-6 (45 ng/ml), or IL-15 (100 ng/ml) (all from Peprotech). In parallel cultures, cells were in vitro stimulated with the LACK-derived MHC II-restricted peptide (5 (25)) and 5×10^6 irradiated syngeneic splenocytes. As a control similar cultures were set up from syngeneic naïve mice. […]
as §1

Row | Molecule | effect on IL-7-driven accumulation of fast-dividing CFSEdim CD4+ T cells and LACK-specific cells [1] | effect on Ag-driven T cell proliferation [2] | frequency and total number of AH-1-specific CD8+ T cells [3] | TO-PRO-3+ dead cells [4] [%] | CD4+ T cells expressing optimal (high) Bcl-2 levels [5] [%] | in vitro proliferation of CD4+ T cells and accumulation of LACK-specific CD4+ T cells [6]
1 | CC(C)(C)n1nc(-c2ccc(Cl)cc2)c2c(N)ncnc21 [PP2] | only partially inhibited | – | – | – | – | –
2 | Oc1ccc(-c2nc(-c3ccncc3)c(-c3ccc(F)cc3)[nH]2)cc1 [SB202190] | only partially inhibited | failed to inhibit | – | – | – | –
3 | IL-6: recombinant IL-6 used as negative control cytokine | – | – | not increased | 73 | 10.5 | failed to support
